The term viability denotes a read-out of living cells in per cent, often relative to untreated cells.

SMILES strings stand for the structures.

The nature of the data set: in vitro. To be noted: human, hela cells, % viability.
Consider `CCc1nc2c(OCC(=O)N3CCOCC3)cccn2c1N(C)C(=O)c1ccco1` [CBK147436], for which the viability at 28.5 h, 10 µM is 92%.
In the case of `CCc1nc2c(OCC=C(C)C)cccn2c1N(C)C(=O)c1cccc(OC)c1` [CBK147448], the viability at 28.5 h, 10 µM turned out to be 94.3%.
Turning to `COc1ccc(CN(C)c2c(C)nc3c(OCC(=O)C(C)(C)C)cccn23)cc1` [CBK147458], the viability at 28.5 h, 10 µM turned out to be 100%.
Regarding `COc1ccc(CN(C)c2c(C)nc3c(OCCc4cccc(OC)c4)cccn23)cc1` [CBK147467], the viability at 28.5 h, 10 µM was found to be 109%.
As to `CCc1nc2c(OCCOc3ccc(F)cc3)cccn2c1N(C)C(=O)c1ccncc1` [CBK147472], the viability at 28.5 h, 10 µM worked out at 93.6%.
With `CCc1nc2c(OCCOc3ccccc3)cccn2c1N(C=O)CC(=O)N(C)C` [CBK147510], the viability at 28.5 h, 10 µM was determined as 96.5%.
For the molecule `CCc1nc2c(OCC(=O)c3ccc(Cl)cc3Cl)cccn2c1N(C)C(=O)C1CC1` [CBK147712], the viability at 28.5 h, 10 µM came to 89.7%.
With `CCc1nc2c(Oc3nc4ccccc4s3)cccn2c1N(C)C(=O)C(C)C` [CBK147765] the figure was 88.5%; with `CCCCC(=O)N(C)c1c(CC)nc2c(OCc3ccc(C#N)cc3)cccn12` [CBK147779], 94.6%; with `CCNC(=O)N(C)c1c(CC)nc2c(OCc3ccc(S(C)(=O)=O)cc3)cccn12` [CBK147797], 93.4%.
The result for `CCc1nc2c(OCC3CCCCC3)cccn2c1N(C=O)Cc1ccc(OC)cc1` [CBK147811] reads 100%; that for `C=CCOc1cccn2c(N(C=O)Cc3ccccc3)c(CC)nc12` [CBK147827], 92.2%; that for `CCCOc1cccn2c(N(CC(=O)N(C)C)C(C)=O)c(CC)nc12` [CBK147850], 102%.
With `CCOC(=O)C(=O)N(C)c1c(CC)nc2c(OCc3ccccc3)cccn12` [CBK147879] the figure was 86.8%.
With `Cc1cccnc1C(NC(=O)C1CCN(CCOc2ccccc2)CC1)c1ccc(F)cc1` (stereo not drawn) [CBK147892], the viability at 28.5 h, 10 µM came out at 91.8%.
Take `Cc1cccnc1C(NC(=O)C1CCN(CCCN2C(=O)CC3CCCCC3C2=O)CC1)c1ccc(F)cc1` (stereo not drawn) [CBK147910]: the viability at 28.5 h, 10 µM is 91.2%.
With `COc1ccccc1C(NC(=O)C1CCN(CCn2cnc3c2c(=O)n(C)c(=O)n3C)CC1)c1ccccn1` (stereo not drawn) [CBK147939] the figure was 91.7%; with `COc1ccccc1C(NC(=O)C1CCN(CCCN2C(=O)CC3CCCCC3C2=O)CC1)c1ccccn1` (stereo not drawn) [CBK147940], 95%.
For `COc1cc(CN2CCC(C(=O)NC(c3ccc(Cl)cc3)c3ccsc3)CC2)cc(OC)c1` (stereo not drawn) [CBK147962], the viability at 28.5 h, 10 µM turned out to be 95.3%.
The result for `O=C(NC(c1ccc(Cl)cc1)c1ccsc1)C1CCN(CCCN2C(=O)CC3CCCCC3C2=O)CC1` (stereo not drawn) [CBK147974] reads 85.3%.
Regarding `Cc1ccccc1C(NC(=O)C1CCN(C/C=C/c2ccccc2)CC1)c1ncccc1C` (stereo not drawn) [CBK147980], the viability at 28.5 h, 10 µM came to 102%.
The result for `O=C(NC(c1ccc(-c2ccccc2)cc1)c1cnccn1)C1CCN(CCc2ccc(F)cc2)CC1` (stereo not drawn) [CBK147981] reads 92.6%; that for `Cc1ccc(C(NC(=O)C2CCN(Cc3ccc(Cl)cc3)CC2)c2ccccn2)cc1` (stereo not drawn) [CBK148007], 103%.
`O=C(NC(c1ccc(Cl)cc1)c1cnccn1)C1CCN(Cc2ccc(Oc3ccccc3)cc2)CC1` (stereo not drawn) [CBK148023]: the viability at 28.5 h, 10 µM amounted to 108%.
With `COc1ccc(C(NC(=O)C2CCN(Cc3c[nH]c4ccccc34)CC2)c2ccccn2)cc1` (stereo not drawn) [CBK148033] the figure was 121%; with `CC(NC(=O)C1CCN(Cc2nccs2)CC1)c1ccc(F)cc1` (stereo not drawn) [CBK148056], 102%; with `COc1cc(OC)nc(C(NC(=O)C2CCN(Cc3ccccc3F)CC2)c2ccc(Cl)cc2)n1` (stereo not drawn) [CBK148152], 98%.
The result for `Cc1cccnc1C(NC(=O)C1CCN(Cc2cccn2C)CC1)c1ccc(Cl)cc1` (stereo not drawn) [CBK148174] reads 110%; that for `COc1cc(OC)nc(C(NC(=O)C2CCN(Cc3cn(C)c4ccccc34)CC2)c2ccc(F)cc2)n1` (stereo not drawn) [CBK148185], 90.7%.
For the molecule `Cc1cccnc1C(NC(=O)C1CCN(C/C=C/c2ccco2)CC1)c1ccc(Cl)cc1` (stereo not drawn) [CBK148201], the viability at 28.5 h, 10 µM came out at 90%.
For the molecule `COc1cc(OC)nc(C(NC(=O)C2CCN(Cc3ccc(N(C)C)cc3)CC2)c2ccc(F)cc2)n1` (stereo not drawn) [CBK148204], the viability at 28.5 h, 10 µM came to 88.9%.
With `COc1cc(OC)nc(C(NC(=O)C2CCN(Cc3nccs3)CC2)c2ccc(Cl)cc2)n1` (stereo not drawn) [CBK148217], the viability at 28.5 h, 10 µM is 85.8%.
With `Cc1cccnc1C(NC(=O)C1CCN(Cc2ccoc2)CC1)c1ccc(Cl)cc1` (stereo not drawn) [CBK148227], the viability at 28.5 h, 10 µM amounted to 102%.
Consider `O=C(NC(c1ccccc1)c1ccco1)C1CCN(CCc2c[nH]c3ccccc23)CC1` (stereo not drawn) [CBK148290], for which the viability at 28.5 h, 10 µM is 100%.
For the molecule `O=C(NC(c1ccccc1)c1ccco1)C1CCN(Cc2cccc(Cl)c2)CC1` (stereo not drawn) [CBK148295], the viability at 28.5 h, 10 µM turned out to be 103%.
`COc1ccc(C(NC(=O)C2CCN(CCn3cnc4c3c(=O)n(C)c(=O)n4C)CC2)c2ccco2)cc1` (stereo not drawn) [CBK148308]: the viability at 28.5 h, 10 µM was 85.8%.
The result for `COc1ccc(C(NC(=O)C2CCN(CCOc3ccc(Br)cc3)CC2)c2ccco2)cc1` (stereo not drawn) [CBK148311] reads 95.8%; that for `O=C(NC(c1ccc2ccccc2n1)c1cccs1)C1CCNCC1` (stereo not drawn) [CBK148331], 98.9%.
`CN(C(=O)C1CCN(Cc2cccc(C(F)(F)F)c2)CC1)C(c1ccc(F)cc1)c1ccccn1` (stereo not drawn) [CBK148409]: the viability at 28.5 h, 10 µM is 95.7%.
On to `COc1cccc(OC)c1OCCN1CCC(C(=O)NC(c2ccccc2)c2ccccn2)CC1` (stereo not drawn) [CBK148419], for which the viability at 28.5 h, 10 µM is 96.3%.
With `O=C(CN1CCC(C(=O)NC(c2ccccc2)c2ccsc2)CC1)c1ccc(F)cc1` (stereo not drawn) [CBK148432] the figure was 86.9%; with `O=C(NC(c1ccccc1)c1ccsc1)C1CCN(CCc2ccccc2)CC1` (stereo not drawn) [CBK148433], 98.1%.
Turning to `O=C(NC(c1ccccc1)c1ccsc1)C1CCN(C/C=C/c2ccccc2)CC1` (stereo not drawn) [CBK148449], the viability at 28.5 h, 10 µM is 89.4%.
With `O=C(NC(c1cccnc1)c1ccc2c(c1)OCO2)C1CCN(CCc2cccs2)CC1` (stereo not drawn) [CBK148503], the viability at 28.5 h, 10 µM was found to be 105%.
`COc1cccc(C(NC(=O)C2CCN(Cc3cccs3)CC2)c2cnccn2)c1` (stereo not drawn) [CBK148572]: the viability at 28.5 h, 10 µM was 106%.
Consider `CC(NC(=O)C1CCN(Cc2ccc(Oc3ccccc3)cc2)CC1)c1ccccc1` (stereo not drawn) [CBK148618], for which the viability at 28.5 h, 10 µM was found to be 107%.
For `CC(NC(=O)C1CCN(CCn2cnc3c2c(=O)n(C)c(=O)n3C)CC1)c1ccccc1` (stereo not drawn) [CBK148624], the viability at 28.5 h, 10 µM is 99.4%.
Consider `COc1cccc(CCN2CCC(C(=O)NC(C)c3cccc4ccccc34)CC2)c1` (stereo not drawn) [CBK148650], for which the viability at 28.5 h, 10 µM was 93.3%.
Regarding `CC(NC(=O)C1CCN(CCCN(C)S(C)(=O)=O)CC1)c1cccc2ccccc12` (stereo not drawn) [CBK148651], the viability at 28.5 h, 10 µM was determined as 104%.
In the case of `CC(NC(=O)C1CCN(Cc2ccccn2)CC1)c1cccc2ccccc12` (stereo not drawn) [CBK148662], the viability at 28.5 h, 10 µM was 98.2%.
For `COc1ccc(OC)c(C(C)NC(=O)C2CCN(Cc3cccc(C(F)(F)F)c3)CC2)c1` (stereo not drawn) [CBK148764], the viability at 28.5 h, 10 µM came to 95.7%.
Turning to `C=CCN1CCC(C(=O)NC(C)c2ccc(OC)c(OC)c2)CC1` (stereo not drawn) [CBK148924], the viability at 28.5 h, 10 µM came out at 91.1%.
With `Cc1cc(Cl)ccc1CNC(=O)c1ccc2[nH]ccc2c1` [CBK149048], the viability at 28.5 h, 10 µM turned out to be 81.7%.
Take `O=C(NCc1cccs1)c1ccc2[nH]ccc2c1` [CBK149060]: the viability at 28.5 h, 10 µM was determined as 83.3%.
Take `CCN(CC)C(=O)c1ccc2[nH]ccc2c1` [CBK149072]: the viability at 28.5 h, 10 µM is 97.1%.
`O=C(c1ccc2[nH]ccc2c1)N1CCCC1` [CBK149074]: the viability at 28.5 h, 10 µM amounted to 106%.
For the molecule `O=C(NCc1nc2ccccc2[nH]1)c1ccc2[nH]ccc2c1` [CBK149079], the viability at 28.5 h, 10 µM is 89%.
Turning to `NC(=O)CCNC(=O)c1ccc2[nH]ccc2c1` [CBK149082], the viability at 28.5 h, 10 µM came out at 102%.
As to `COc1cccc2cc(C(=O)N3CCN(C4CCN(C)CC4)CC3)oc12` [CBK149086], the viability at 28.5 h, 10 µM was found to be 91.2%.
Turning to `Cc1c(C(=O)N2CCN(C3CCN(C)CC3)CC2)nnn1-c1cccc(C(F)(F)F)c1` [CBK149088], the viability at 28.5 h, 10 µM is 94.2%.
With `CC(C)c1ccc(/C=C/C(=O)N2CCN(C3CCN(C)CC3)CC2)cc1` [CBK149094] the figure was 105%; with `CN1CCC(N2CCN(C(=O)c3ccc4c(c3)no[n+]4[O-])CC2)CC1` [CBK149095], 92.6%.
With `CN1CCC(N2CCN(C(=O)C3(c4ccccc4)CCCC3)CC2)CC1` [CBK149096], the viability at 28.5 h, 10 µM is 99.3%.
For the molecule `CC(=O)c1c(C)[nH]c(C(=O)N2CCN(C3CCN(C)CC3)CC2)c1C` [CBK149098], the viability at 28.5 h, 10 µM stood at 104%.
With `COc1cc(CN2CCC[C@@H]2CN2CCCC2)cc(OC)c1OC` [CBK149100] the figure was 105%; with `c1cncc(CN2CCC[C@@H]2CN2CCCC2)c1` [CBK149101C], 99.3%.
Regarding `c1ccc2[nH]c(CN3CCC[C@@H]3CN3CCCC3)nc2c1` [CBK149102], the viability at 28.5 h, 10 µM was found to be 85.9%.
Consider `c1ccc2c(CCN3CCC[C@@H]3CN3CCCC3)c[nH]c2c1` [CBK149104], for which the viability at 28.5 h, 10 µM was 87.4%.
With `O=C(CN1CCC[C@@H]1CN1CCCC1)Nc1ncccn1` [CBK149107], the viability at 28.5 h, 10 µM came out at 103%.
Turning to `c1ccc(C(CCN2CCC[C@@H]2CN2CCCC2)c2ccccc2)cc1` [CBK149109], the viability at 28.5 h, 10 µM stood at 89.7%.
With `O=C(c1ccc(F)cc1)C1CCN(Cc2cccnc2)CC1` [CBK149118] the figure was 101%; with `Cc1cc(CN2CCC(C(=O)c3ccc(F)cc3)CC2)no1` [CBK149121], 89.2%.
As for `O=C(c1ccc(F)cc1)C1CCN(Cc2ccc3ccccc3c2)CC1` [CBK149122], the viability at 28.5 h, 10 µM came to 79.9%.
For `O=C(c1ccc(F)cc1)C1CCN(C/C=C/c2ccccc2)CC1` [CBK149124], the viability at 28.5 h, 10 µM is 90.4%.
The result for `O=C(c1ccc(F)cc1)C1CCN(CCc2c[nH]c3ccccc23)CC1` [CBK149125] reads 96.3%.

The values above are taken from publication PMC12040169 (PLOS Biology, 2025).
